# Reference: paper PMC4763008, “Selective Inhibition of Bakuchicin Isolated from Psoralea corylifolia on CYP1A in Human Liver Microsomes” (Evidence-based Complementary and Alternative Medicine : eCAM, 2016)
# Like-named read-outs stand apart in the source and are kept apart here.
# Experiments:
# Type in all cases: in vitro ADME
# CYP1A2 = biological target: T1, CYP1A2 (Homo sapiens, UniProt P05177); test: CYP inhibition, cocktail of probe substrates in pooled human liver microsomes: phenacetin O-deethylation; settings: for IC50: pooled HLMs, substrate 80 μM
# T1 construct: tissue Corning Gentest BD UltraPool HLM 150; host or cells: pooled human liver microsomes
# T1 sequence (P05177 1-516): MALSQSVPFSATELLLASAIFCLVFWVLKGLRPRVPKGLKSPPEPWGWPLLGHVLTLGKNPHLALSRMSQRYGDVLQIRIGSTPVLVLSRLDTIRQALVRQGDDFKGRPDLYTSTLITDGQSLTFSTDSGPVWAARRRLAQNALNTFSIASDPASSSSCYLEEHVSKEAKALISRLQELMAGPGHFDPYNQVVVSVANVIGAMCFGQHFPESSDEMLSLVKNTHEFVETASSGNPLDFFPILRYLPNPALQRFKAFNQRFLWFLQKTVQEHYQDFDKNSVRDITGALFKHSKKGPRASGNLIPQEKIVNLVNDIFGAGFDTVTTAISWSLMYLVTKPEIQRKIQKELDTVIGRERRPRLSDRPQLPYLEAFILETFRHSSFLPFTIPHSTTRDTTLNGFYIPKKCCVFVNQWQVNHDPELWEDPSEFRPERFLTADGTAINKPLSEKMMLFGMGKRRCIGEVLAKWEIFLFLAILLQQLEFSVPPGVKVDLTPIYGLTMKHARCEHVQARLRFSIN
# Method: (§1) All incubations were performed in duplicate, and data are presented as means. Briefly, each reaction was performed with 0.5 mg/mL pooled human liver microsomes in a final incubation volume of 0.1 mL. The incubation medium consisted of 0.1 M potassium phosphate buffer (pH 7.4) containing cocktail of probe substrates and a NADPH-generating system (NGS) of 0.1 M glucose 6-phosphate, 10 mg/mL β-NADPH, and 1.0 U/mL glucose-6-phosphate dehydrogenase. To investigate the IC50 of bakuchicin during CYP1A inhibition, bakuchicin (at final concentrations of 0–25 μM) was incubated without preincubation. In addition, the mixture with bakuchicin was preincubated for 15 min without the probe substrate cocktail in the presence or absence of 1 mM β-NADPH. After the reaction was initiated by adding the NGS for 60 min, incubated samples were terminated by adding 100 μL acetonitrile containing 0.1% formic acid and 2.5 μL of internal standard solution (5 μM reserpine) in methanol. After mixing and centrifuging at 13,000 ×g for 12 min, a 5 μL aliquot was injected onto a C18 column for LC-MS/MS analysis.
# (§2) All measurements were performed using LC-MS/MS in multiple reaction monitoring mode. LC-MS/MS was performed using an Accela™ LC system coupled to a TSQ Vantage triple quadrupole mass spectrometer (Thermo Fisher Scientific Inc., USA) equipped with a HESI-II Spray source. Electrospray ionization was performed in positive mode at a spray voltage of 3,500 V (except for the detection of 6-hydroxy chlorzoxazone). Nitrogen was used as a sheath and auxiliary gas at optimum values of 45 and 20 (arbitrary units), respectively. Vaporizer and capillary temperatures were 150 and 300°C, respectively. For LC analysis an Inertsil® ODS-2 (3 μm, 2.1 × 150 mm) column (GL Sciences Inc., Torrance, CA) was used. The mobile phase consisted of acetonitrile (mobile phase A) and water (mobile phase B), both of which contained 0.1% formic acid, at a flow rate of 0.22 mL/min at 30°C.
# All incubations were performed in duplicate, and data are presented as means. IC50 values (the concentration of inhibitor causing a 50% inhibition in enzyme activity) were obtained using percent activity versus log[I] concentration plots. Kinetic parameters were estimated by curve fitting using SigmaPlot (version 12.0, Systat Software, Inc.).
# CYP2B6 = biological target: T2, CYP2B6 (Homo sapiens, UniProt P20813); test: CYP inhibition, cocktail of probe substrates in pooled human liver microsomes: bupropion hydroxylation; settings: pooled HLMs, substrate 50 μM
# T2 construct: tissue Corning Gentest BD UltraPool HLM 150; host or cells: pooled human liver microsomes
# T2 sequence (P20813 1-491): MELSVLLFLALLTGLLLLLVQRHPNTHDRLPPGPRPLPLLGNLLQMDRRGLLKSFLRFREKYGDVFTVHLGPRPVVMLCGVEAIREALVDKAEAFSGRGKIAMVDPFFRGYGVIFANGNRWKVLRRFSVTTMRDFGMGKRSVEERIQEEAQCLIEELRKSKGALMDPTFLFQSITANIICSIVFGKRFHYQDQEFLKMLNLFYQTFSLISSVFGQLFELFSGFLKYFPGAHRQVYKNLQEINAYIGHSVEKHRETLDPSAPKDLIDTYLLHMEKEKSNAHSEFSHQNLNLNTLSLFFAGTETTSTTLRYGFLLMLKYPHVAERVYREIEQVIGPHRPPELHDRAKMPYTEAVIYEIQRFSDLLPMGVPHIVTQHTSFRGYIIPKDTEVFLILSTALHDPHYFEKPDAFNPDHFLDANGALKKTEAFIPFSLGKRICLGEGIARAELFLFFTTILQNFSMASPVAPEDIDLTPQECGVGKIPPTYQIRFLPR
# Method: as §1, §2
# (§3) All incubations were performed in duplicate, and data are presented as means. […]
# CYP2C19 = biological target: T3, CYP2C19 (Homo sapiens, UniProt P33261); test: CYP inhibition, cocktail of probe substrates in pooled human liver microsomes: omeprazole 5-hydroxylation; settings: pooled HLMs, substrate 20 μM
# T3 construct: tissue Corning Gentest BD UltraPool HLM 150; host or cells: pooled human liver microsomes
# Method: as §1, §2, §3
# [1] = 15 min preincubation with NADPH, read-out: IC50 With preincubation with NADPH
# [2] = 15 min preincubation without NADPH, read-out: IC50 With preincubation Without NADPH
# [3] = without preincubation, read-out: IC50 Without preincubation
# T3 sequence (P33261 whole entry): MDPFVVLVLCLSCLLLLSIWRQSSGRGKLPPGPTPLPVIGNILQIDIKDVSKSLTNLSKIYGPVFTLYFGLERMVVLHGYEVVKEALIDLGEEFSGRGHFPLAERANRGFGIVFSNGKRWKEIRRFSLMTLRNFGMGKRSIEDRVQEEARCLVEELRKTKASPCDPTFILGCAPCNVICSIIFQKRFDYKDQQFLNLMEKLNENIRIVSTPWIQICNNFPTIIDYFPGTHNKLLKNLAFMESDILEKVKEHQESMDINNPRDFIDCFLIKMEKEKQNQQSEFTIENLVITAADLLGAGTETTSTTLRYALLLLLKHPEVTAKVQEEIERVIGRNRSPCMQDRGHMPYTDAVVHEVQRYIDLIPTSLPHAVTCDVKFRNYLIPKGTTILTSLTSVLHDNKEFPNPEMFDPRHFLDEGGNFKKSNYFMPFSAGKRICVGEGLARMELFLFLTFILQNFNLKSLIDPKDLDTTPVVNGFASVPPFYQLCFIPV
smiles,measurement,setting,value
O=c1ccc2c(ccc3ccoc32)o1 [Bakuchicin],time dependence of CYP1A inhibition,"CYP1A2; HLMs, preincubation time 0-20 min at 37°C",not time-dependent inhibition
same,IC50,CYP1A2; [1],0.22 µM
same,IC50,CYP1A2; [2],0.22 µM
same,IC50,CYP1A2; [3],0.43 µM
same,IC50,CYP2B6; [1],11.5 µM
same,IC50,CYP2B6; [2],16.4 µM
same,IC50,CYP2B6; [3],14.2 µM
same,IC50,CYP2C19; [1],> 100 µM
same,IC50,CYP2C19; [2],> 100 µM
same,IC50,CYP2C19; [3],> 100 µM
